Data on nine compounds can be found in ChEMBL document CHEMBL5331066, “Structure-guided design of novel HEPT analogs with enhanced potency and safety: From Isopropyl-HEPTs to Cyclopropyl-HEPTs” (Eur J Med Chem, 2023).

A word on the EC50: it is the concentration that produces a half-maximal response. As a reminder, the CC50 is the concentration giving 50% cytotoxicity. Usually IC50 stands for the concentration that gives 50% inhibition.

One data set relates to Human immunodeficiency virus 1. As to the kind of experiment: Antiviral activity against HIV1 harboring L100I mutant infected in human MT4 cells assessed as protection against virus-induced cytopathicity. Format: functional, organism-based. Particulars: Human immunodeficiency virus 1, MT4.
For `O=c1[nH]c(=O)n(COCc2ccccc2)c(Sc2c(Cl)cccc2Cl)c1C1CC1`, the EC50 was 2.65 µM.
On to `Cc1cc(C)cc(Sc2c(C3CC3)c(=O)[nH]c(=O)n2COCc2ccccc2)c1`, for which the EC50 came out at 0.13 µM.
For the compound `O=c1[nH]c(=O)n(COCc2ccccc2)c(Sc2cccc(Cl)c2)c1C1CC1`, the EC50 was determined as 0.36 µM.
Consider `Cc1cccc(C)c1Sc1c(C2CC2)c(=O)[nH]c(=O)n1COCc1ccccc1`, for which the 50% effective concentration (EC50) was over 7.42 µM.
The same measure, in the same setting: for `O=c1[nH]c(=O)n(COCc2ccccc2)c(Sc2cccc(Br)c2)c1C1CC1` the value was 0.37 µM; for `O=c1[nH]c(=O)n(COCc2ccccc2)c(Sc2cc(Cl)ccc2Cl)c1C1CC1`, 0.12 µM; for `O=c1[nH]c(=O)n(COCc2ccccc2)c(Sc2cccc(Cl)c2Cl)c1C1CC1`, 2.34 µM.
For the compound `Cc1ccc(C)c(Sc2c(C3CC3)c(=O)[nH]c(=O)n2COCc2ccccc2)c1`, the EC50 came out at 0.19 µM.
For `Cc1ccc(Sc2c(C3CC3)c(=O)[nH]c(=O)n2COCc2ccccc2)cc1`, the EC50 turned out to be 2.05 µM.

In another data set the test system is Human immunodeficiency virus 1. Description: Antiviral activity against wild type HIV1 IIIB infected in human MT4 cells assessed as protection against virus-induced cytopathicity. Format: functional, organism-based. The following applies: Human immunodeficiency virus 1, IIIB. (Cytopathic effects are the visible damage that an infection or toxin causes in cultured cells.)
`O=c1[nH]c(=O)n(COCc2ccccc2)c(Sc2c(Cl)cccc2Cl)c1C1CC1`: the concentration giving a half-maximal response (EC50) stood at 3.14 µM.
As to `Cc1cc(C)cc(Sc2c(C3CC3)c(=O)[nH]c(=O)n2COCc2ccccc2)c1`, the EC50 came out at 0.023 µM.
`O=c1[nH]c(=O)n(COCc2ccccc2)c(Sc2cccc(Cl)c2)c1C1CC1`: the EC50 was 0.048 µM.
As for `Cc1cccc(C)c1Sc1c(C2CC2)c(=O)[nH]c(=O)n1COCc1ccccc1`, the EC50 came to 4.36 µM.
`O=c1[nH]c(=O)n(COCc2ccccc2)c(Sc2cccc(Br)c2)c1C1CC1`: the EC50 was determined as 0.11 µM.
For the compound `O=c1[nH]c(=O)n(COCc2ccccc2)c(Sc2cc(Cl)ccc2Cl)c1C1CC1`, the EC50 was found to be 0.029 µM.
For `O=c1[nH]c(=O)n(COCc2ccccc2)c(Sc2cccc(Cl)c2Cl)c1C1CC1`, the EC50 is 0.8 µM.
For `Cc1ccc(C)c(Sc2c(C3CC3)c(=O)[nH]c(=O)n2COCc2ccccc2)c1`, the concentration giving a half-maximal response (EC50) is 0.071 µM.
The same measure, in the same setting: for `Cc1ccc(Sc2c(C3CC3)c(=O)[nH]c(=O)n2COCc2ccccc2)cc1` the value was 2.59 µM.

Test system in the next data set: not listed separately
Description: Cytotoxicity against human MT4 cells assessed as reduction in cell viability. Format: toxicity, cell-based.
Conditions: not given
For the compound `O=c1[nH]c(=O)n(COCc2ccccc2)c(Sc2c(Cl)cccc2Cl)c1C1CC1`, the CC50 stood at 22.9 µM.
On the same count and under the same terms, the value for `Cc1cc(C)cc(Sc2c(C3CC3)c(=O)[nH]c(=O)n2COCc2ccccc2)c1` was 34 µM; that for `O=c1[nH]c(=O)n(COCc2ccccc2)c(Sc2cccc(Cl)c2)c1C1CC1` was 29.7 µM.
On to `Cc1cccc(C)c1Sc1c(C2CC2)c(=O)[nH]c(=O)n1COCc1ccccc1`, for which the CC50 was determined as 30.3 µM.
For the compound `O=c1[nH]c(=O)n(COCc2ccccc2)c(Sc2cccc(Br)c2)c1C1CC1`, the CC50 came to 26.5 µM.
Take `O=c1[nH]c(=O)n(COCc2ccccc2)c(Sc2cc(Cl)ccc2Cl)c1C1CC1`: the CC50 came out at 33.9 µM.
In the case of `O=c1[nH]c(=O)n(COCc2ccccc2)c(Sc2cccc(Cl)c2Cl)c1C1CC1`, the CC50 worked out at 27.4 µM.
With `Cc1ccc(C)c(Sc2c(C3CC3)c(=O)[nH]c(=O)n2COCc2ccccc2)c1`, the CC50 came to 74.8 µM.
Turning to `Cc1ccc(Sc2c(C3CC3)c(=O)[nH]c(=O)n2COCc2ccccc2)cc1`, the CC50 amounted to 31.8 µM.

Test system in the next data set: not listed separately
As to the kind of experiment: Selectivity index, ratio of CC50 for cytotoxicity against human MT4 cells to EC50 for antiviral activity against wild type HIV1 IIIB infected in human MT4 cells. Format: toxicity, cell-based. Particulars: read-out: Ratio CC50/EC50.
Turning to `O=c1[nH]c(=O)n(COCc2ccccc2)c(Sc2c(Cl)cccc2Cl)c1C1CC1`, the selectivity ratio worked out at 7.
Take `Cc1cc(C)cc(Sc2c(C3CC3)c(=O)[nH]c(=O)n2COCc2ccccc2)c1`: the selectivity ratio was determined as 1480.
In the case of `O=c1[nH]c(=O)n(COCc2ccccc2)c(Sc2cccc(Cl)c2)c1C1CC1`, the selectivity ratio worked out at 613.
In the case of `Cc1cccc(C)c1Sc1c(C2CC2)c(=O)[nH]c(=O)n1COCc1ccccc1`, the selectivity ratio is 7.
As to `O=c1[nH]c(=O)n(COCc2ccccc2)c(Sc2cccc(Br)c2)c1C1CC1`, the selectivity ratio was 239.
On to `O=c1[nH]c(=O)n(COCc2ccccc2)c(Sc2cc(Cl)ccc2Cl)c1C1CC1`, for which the selectivity ratio is 1140.
Consider `O=c1[nH]c(=O)n(COCc2ccccc2)c(Sc2cccc(Cl)c2Cl)c1C1CC1`, for which the selectivity ratio came to 34.
For the compound `Cc1ccc(C)c(Sc2c(C3CC3)c(=O)[nH]c(=O)n2COCc2ccccc2)c1`, the selectivity ratio amounted to 1050.
Consider `Cc1ccc(Sc2c(C3CC3)c(=O)[nH]c(=O)n2COCc2ccccc2)cc1`, for which the selectivity ratio was 12.

Another data set relates to Human immunodeficiency virus 1. Description: Antiviral activity against HIV1 harboring K103 N mutant infected in human MT4 cells assessed as protection against virus-induced cytopathicity. Format: functional, organism-based. Particulars: Human immunodeficiency virus 1, MT4.
As for `O=c1[nH]c(=O)n(COCc2ccccc2)c(Sc2c(Cl)cccc2Cl)c1C1CC1`, the EC50 was over 22.9 µM.
`Cc1cc(C)cc(Sc2c(C3CC3)c(=O)[nH]c(=O)n2COCc2ccccc2)c1`: the EC50 was found to be 1.05 µM.
As for `O=c1[nH]c(=O)n(COCc2ccccc2)c(Sc2cccc(Cl)c2)c1C1CC1`, the concentration for a half-maximal effect (EC50) is 3.74 µM.
On to `Cc1cccc(C)c1Sc1c(C2CC2)c(=O)[nH]c(=O)n1COCc1ccccc1`, for which the EC50 is over 30.3 µM.
Take `O=c1[nH]c(=O)n(COCc2ccccc2)c(Sc2cccc(Br)c2)c1C1CC1`: the EC50 came out at 3.64 µM.
Regarding `O=c1[nH]c(=O)n(COCc2ccccc2)c(Sc2cc(Cl)ccc2Cl)c1C1CC1`, the concentration giving a half-maximal response (EC50) amounted to 1.51 µM.
For the compound `O=c1[nH]c(=O)n(COCc2ccccc2)c(Sc2cccc(Cl)c2Cl)c1C1CC1`, the EC50 was over 27.4 µM.
On the same count and under the same terms, for `Cc1ccc(C)c(Sc2c(C3CC3)c(=O)[nH]c(=O)n2COCc2ccccc2)c1` the value was 4.16 µM; for `Cc1ccc(Sc2c(C3CC3)c(=O)[nH]c(=O)n2COCc2ccccc2)cc1`, over 31.8 µM.

A further data set relates to Human immunodeficiency virus 1. As to the kind of experiment: Antiviral activity against HIV1 harboring Y181C mutant infected in human MT4 cells assessed as protection against virus-induced cytopathicity. Format: functional, organism-based. Particulars: Human immunodeficiency virus 1, MT4.
As to `O=c1[nH]c(=O)n(COCc2ccccc2)c(Sc2c(Cl)cccc2Cl)c1C1CC1`, the EC50 was over 22.9 µM.
Regarding `Cc1cc(C)cc(Sc2c(C3CC3)c(=O)[nH]c(=O)n2COCc2ccccc2)c1`, the EC50 came to 1.03 µM.
With `O=c1[nH]c(=O)n(COCc2ccccc2)c(Sc2cccc(Cl)c2)c1C1CC1`, the EC50 amounted to 3.28 µM.
On to `Cc1cccc(C)c1Sc1c(C2CC2)c(=O)[nH]c(=O)n1COCc1ccccc1`, for which the EC50 was over 30.3 µM.
On to `O=c1[nH]c(=O)n(COCc2ccccc2)c(Sc2cccc(Br)c2)c1C1CC1`, for which the EC50 was 3.09 µM.
As for `O=c1[nH]c(=O)n(COCc2ccccc2)c(Sc2cc(Cl)ccc2Cl)c1C1CC1`, the EC50 stood at 0.51 µM.
With `O=c1[nH]c(=O)n(COCc2ccccc2)c(Sc2cccc(Cl)c2Cl)c1C1CC1`, the EC50 is over 27.4 µM.
Same read-out and setting: for `Cc1ccc(C)c(Sc2c(C3CC3)c(=O)[nH]c(=O)n2COCc2ccccc2)c1` the value was 2.01 µM.
Still for that read-out and setting: for `Cc1ccc(Sc2c(C3CC3)c(=O)[nH]c(=O)n2COCc2ccccc2)cc1` the value was 5.22 µM.

Another data set relates to Human immunodeficiency virus 1. Description: Antiviral activity against HIV1 harboring Y188L mutant infected in human MT4 cells assessed as protection against virus-induced cytopathicity. Format: functional, organism-based. The following applies: Human immunodeficiency virus 1, MT4.
In the case of `O=c1[nH]c(=O)n(COCc2ccccc2)c(Sc2c(Cl)cccc2Cl)c1C1CC1`, the concentration for a half-maximal effect (EC50) was over 22.9 µM.
With `Cc1cc(C)cc(Sc2c(C3CC3)c(=O)[nH]c(=O)n2COCc2ccccc2)c1`, the EC50 is 3.75 µM.
For `O=c1[nH]c(=O)n(COCc2ccccc2)c(Sc2cccc(Cl)c2)c1C1CC1`, the concentration for a half-maximal effect (EC50) is over 29.7 µM.
`Cc1cccc(C)c1Sc1c(C2CC2)c(=O)[nH]c(=O)n1COCc1ccccc1`: the EC50 was over 30.3 µM.
Consider `O=c1[nH]c(=O)n(COCc2ccccc2)c(Sc2cccc(Br)c2)c1C1CC1`, for which the EC50 was over 26.5 µM.
As to `O=c1[nH]c(=O)n(COCc2ccccc2)c(Sc2cc(Cl)ccc2Cl)c1C1CC1`, the EC50 was found to be 7.92 µM.
`O=c1[nH]c(=O)n(COCc2ccccc2)c(Sc2cccc(Cl)c2Cl)c1C1CC1`: the EC50 was over 27.4 µM.
For the compound `Cc1ccc(C)c(Sc2c(C3CC3)c(=O)[nH]c(=O)n2COCc2ccccc2)c1`, the EC50 stood at 19.1 µM.
Take `Cc1ccc(Sc2c(C3CC3)c(=O)[nH]c(=O)n2COCc2ccccc2)cc1`: the concentration for a half-maximal effect (EC50) is over 31.8 µM.

Another data set concerns Human immunodeficiency virus 1. Description: Antiviral activity against HIV1 harboring E138K mutant infected in human MT4 cells assessed as protection against virus-induced cytopathicity. Format: functional, organism-based. Particulars: Human immunodeficiency virus 1, MT4.
Turning to `O=c1[nH]c(=O)n(COCc2ccccc2)c(Sc2c(Cl)cccc2Cl)c1C1CC1`, the EC50 was determined as 3.07 µM.
As for `Cc1cc(C)cc(Sc2c(C3CC3)c(=O)[nH]c(=O)n2COCc2ccccc2)c1`, the EC50 was found to be 0.14 µM.
Same read-out and setting: the value for `O=c1[nH]c(=O)n(COCc2ccccc2)c(Sc2cccc(Cl)c2)c1C1CC1` was 0.19 µM.
With `Cc1cccc(C)c1Sc1c(C2CC2)c(=O)[nH]c(=O)n1COCc1ccccc1`, the concentration for a half-maximal effect (EC50) is over 30.3 µM.
On the same count and under the same terms, the value for `O=c1[nH]c(=O)n(COCc2ccccc2)c(Sc2cccc(Br)c2)c1C1CC1` was 0.24 µM; that for `O=c1[nH]c(=O)n(COCc2ccccc2)c(Sc2cc(Cl)ccc2Cl)c1C1CC1` was 0.07 µM; that for `O=c1[nH]c(=O)n(COCc2ccccc2)c(Sc2cccc(Cl)c2Cl)c1C1CC1` was 0.67 µM.
Same read-out and setting: for `Cc1ccc(C)c(Sc2c(C3CC3)c(=O)[nH]c(=O)n2COCc2ccccc2)c1` the value was 0.23 µM.
Turning to `Cc1ccc(Sc2c(C3CC3)c(=O)[nH]c(=O)n2COCc2ccccc2)cc1`, the EC50 was 10.2 µM.

A further data set addresses Human immunodeficiency virus type 1 reverse transcriptase (Human immunodeficiency virus 1, UniProt Q72547). Description: Inhibition of wild type HIV-1 reverse transcriptase assessed as inhibition of biotin deoxyuridine triphosphate incorporation into […].
Conditions: not given
`O=c1[nH]c(=O)n(COCc2ccccc2)c(Sc2c(Cl)cccc2Cl)c1C1CC1`: the IC50 stood at 4.23 µM.
In the case of `Cc1cc(C)cc(Sc2c(C3CC3)c(=O)[nH]c(=O)n2COCc2ccccc2)c1`, the half-inhibitory concentration (IC50) was 0.08 µM.
For `O=c1[nH]c(=O)n(COCc2ccccc2)c(Sc2cccc(Cl)c2)c1C1CC1`, the 50% inhibitory concentration (IC50) was found to be 0.06 µM.
For `Cc1cccc(C)c1Sc1c(C2CC2)c(=O)[nH]c(=O)n1COCc1ccccc1`, the IC50 stood at 6.12 µM.
With `O=c1[nH]c(=O)n(COCc2ccccc2)c(Sc2cccc(Br)c2)c1C1CC1`, the IC50 was determined as 0.07 µM.
As for `O=c1[nH]c(=O)n(COCc2ccccc2)c(Sc2cc(Cl)ccc2Cl)c1C1CC1`, the half-inhibitory concentration (IC50) was 0.03 µM.
As for `O=c1[nH]c(=O)n(COCc2ccccc2)c(Sc2cccc(Cl)c2Cl)c1C1CC1`, the concentration for half-maximal inhibition (IC50) came out at 1.22 µM.
Same read-out and setting: the value for `Cc1ccc(C)c(Sc2c(C3CC3)c(=O)[nH]c(=O)n2COCc2ccccc2)c1` was 0.08 µM.
In the case of `Cc1ccc(Sc2c(C3CC3)c(=O)[nH]c(=O)n2COCc2ccccc2)cc1`, the IC50 turned out to be 3.8 µM.
